{"source": "patent US9108947B2", "about": "“Inhibitors of the Renal Outer Medullary Potassium channel” (Merck Sharp & Dohme Corp., priority 2011, dated 2015)", "key": {"hROMK (hKir1.1)": {"target": "hROMK (hKir1.1) (Homo sapiens (Human), UniProt P48048)", "sequence (P48048 whole entry)": "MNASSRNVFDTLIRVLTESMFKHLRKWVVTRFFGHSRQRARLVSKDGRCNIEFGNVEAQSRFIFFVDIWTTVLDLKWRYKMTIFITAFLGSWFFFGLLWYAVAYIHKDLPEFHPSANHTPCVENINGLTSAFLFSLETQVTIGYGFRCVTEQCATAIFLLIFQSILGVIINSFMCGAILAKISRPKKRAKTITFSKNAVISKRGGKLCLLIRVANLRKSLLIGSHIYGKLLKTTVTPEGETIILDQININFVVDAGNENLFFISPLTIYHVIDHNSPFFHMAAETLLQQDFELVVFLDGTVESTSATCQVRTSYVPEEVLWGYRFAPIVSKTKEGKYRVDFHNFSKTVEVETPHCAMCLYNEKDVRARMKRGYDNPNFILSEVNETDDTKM", "assay": "Thallium Flux Assay (ROMK channel functional thallium flux, FLIPR-Tetra)", "format": "cell-based", "settings": "HEK293 cells stably expressing hROMK (hKir1.1); 30 min compound incubation", "description": "(§1) Several assays may be used to measure functional inhibition of the ROMK channel by compounds of the instant invention. One assay that can be used is an electrophysiology assay that measures the electrical current that is generated as potassium permeates through the channel. Another ROMK functional assay makes use of the ability of thallium to permeate through open ROMK channels and increase the fluorescence of a dye previously loaded into the cells. Under control conditions, cells loaded with dye and exposed to thallium-containing medium display a time-dependent increase in fluorescence, the rate of which depends on number of functional channels. When cells are incubated in the presence of a channel inhibitor, the increase in fluorescence is attenuated in a concentration-dependent manner, and IC50 values of inhibition by compounds can be accurately determined. This assay has been established with cell lines expressing either human, or rat ROMK channels, and operates in 384-well format.\nHEK293 cells stably expressing hROMK (hKir1.1) were grown at 37° C. in a 10% CO2 humidified incubator in complete growth media: Dulbecco's Modified Eagle Medium supplemented with non-essential amino acids, Penicillin/Streptomycin/Glutamine, G418 and FBS. At >80% confluency, the media was aspirated from the flask and the sample was rinsed with 10 ml Calcium/Magnesium-free PBS. […] To dislodge the cell, the side of the flask was gently banged with a hand. The cells were triturated completely and then transferred to 25 ml complete media. The sample was then centrifuged at 1,500 rpm for 6 minutes, followed by resuspension in complete growth media and then cell concentration was determined. […] Under ideal growth conditions and appropriate tissue culture practices, this cell line is stable for 40-45 passages.\n• FluxOR™ Reagent (Component A) • FluxOR™ Assay Buffer (Component B)—10× Concentrate • PowerLoad™ Concentrate (Component C)—100× Concentrate • Probenecid (Component D) Lyophilized sample is kept at −20° C. Water soluble, 100× after solubilization in 1 ml water. […] Store at 4° C. • Thallium sulfate (Tl2SO4) Concentrate (Component G)—50 mM in water. […] Can be stored at room temperature • Stimulant Buffer (prepared at 5× final concentration in 1× FluxOR™Chloride-Free Buffer): 7.5 mM Thallium sulfate and 0.75 mM Potassium sulfate (to give a final assay concentration of 3 mM Thallium 0.3 mM Potassium). Store at 4° C. when not in use. If kept sterile, this solution is good for months. Assay Protocol—\nThe ROMK channel functional thallium flux assay is performed in 384 wells, using the FLIPR-Tetra instrument. HEK-hKir1.1 cells are seeded in Poly-D-Lysine microplates and kept in a 37° C.-10% CO2 incubator overnight. On the day of the experiment, the growth media is replaced with the FluxOR™ reagent loading buffer and incubated, protected from light, at ambient temperature (23-25° C.) for 90 min. The loading buffer is replaced with assay buffer±test compound followed by 30 min incubation at ambient temperature, where the Thallium/Potassium stimulant is added to the microplate.\n• 1. Seed HEK-hKir1.1 cells (50 μl at 20,000 cells/well) in 384-well PDL coated Microplates • 2. Allow cells to adhere overnight in humidified 37° C./10% CO2 incubator • 3. Completely remove cell growth media from microplate and replace with 25 μl loading buffer • 4. Incubate Microplate at room temperature, protected form light, for 90 min • 5. Remove loading buffer and replace with 25 μl 1× Assay Buffer±test compound. • 6. Incubate microplate at room temperature, protected form light, for 30 min • 7. […] Excitation=400 nm, Emission=460 & 580 nm. Collect data for 10 min. Data Calculation—\nThe fluorescence intensity of wells containing 3 μM of a standard control ROMK inhibitor of the present invention is used to define the ROMK-sensitive component of thallium flux. Fluorescence in the presence of test compounds is normalized to control values to provide % fluorescence change."}, "Kir1.1 (ROMK1)": {"target": "Kir1.1 (ROMK1) (Homo sapiens (Human), UniProt P48048)", "sequence (P48048 whole entry, species assumed)": "as the sequence (P48048 whole entry) above", "assay": "Electrophysiology Assay (whole cell voltage clamp, IonWorks Quattro)", "format": "cell-based", "settings": "Chinese hamster ovary cells stably expressing Kir1.1; block during voltage step to 0 mV; 6 minutes compound incubation; read-out: EP Assay IC50", "description": "as §1\nChinese hamster ovary cells stably expressing Kir1.1 channels were maintained in T-75 flasks in cell culture media in a humidified 10% CO2 incubator at 37° C. Prior to an experiment, Kir1.1 expression was induced by overnight incubation with 1 mM sodium butyrate. […] After centrifugation, the cell pellet was resuspended in approximately 4.0 ml of bath solution and placed in the IonWorks® instrument. The intracellular solution consisted of (in mM): 80 K gluconate, 40 KCl, 20 KF, 3.2 MgCl2, 3 EGTA, 5 Hepes, pH 7.4. Electrical access to the cytoplasm was achieved by perforation in 0.13 mg/ml amphotericin B for 4 minutes.\nVoltage protocols and current recordings were performed using the IonWorks® HT software/hardware system. Currents were sampled at 1 kHz. No correction for liquid junction potentials was used. The test pulse, consisting of a 100 ms step to 0 mV from a holding potential of −70 mV, followed by a 100 ms voltage ramp from −70 mV to +70 mV, was applied before and after a 6 minutes compound incubation period. Test compounds were prepared by diluting DMSO stock solutions into the bath solution at 3× the final concentration and placed in the instrument in 96-well polypropylene plates. Current amplitudes were measured using the IonWorks® software."}}, "data": [{"smiles": "Cc1c([C@@H](O)CNC2C[C@H]3C[C@@H]2N(C[C@H](O)c2ccc4c(c2C)COC4=O)C3)ccc2c1COC2=O", "note": "(single isomer, unassigned) [Example 17A]", "values": [{"measurement": "IC50", "setting": "hROMK (hKir1.1)", "result": 500, "unit": "nM"}, {"measurement": "IC50", "setting": "Kir1.1 (ROMK1)", "result": 1420, "unit": "nM"}]}, {"smiles": "Cc1c([C@@H](O)CNC2(C3CCN(C[C@H](O)c4ccc5c(c4C)COC5=O)C3)CCC2)ccc2c1COC2=O", "note": "(stereo partly drawn) [Example 2, 5-{(1R)-1-Hydroxy-2-[3-(1-{[(2R)-2-hydroxy-2-(4-methyl-1-oxo-1,3-dihydro-2-benzofuran-5-yl)ethyl]amino}cyclobutyl)pyrrolidin-1-yl]ethyl}-4-methyl-2-benzofuran-1(3H)-one]", "values": [{"measurement": "IC50", "setting": "hROMK (hKir1.1)", "result": 172, "unit": "nM"}, {"measurement": "IC50", "setting": "Kir1.1 (ROMK1)", "result": 420, "unit": "nM"}]}, {"smiles": "Cc1c([C@@H](O)CN2CC[C@@H](NS(=O)(=O)c3ccc(C#N)cc3)C2)ccc2c1COC2=O", "note": "[Example 15, 4-Cyano-N—((R)-1-((R)-2-hydroxy-2-(4-methyl-1-oxo-1,3-dihydroisobenzofuran-5-yl)ethyl)pyrrolidin-3-yl)benzenesulfonamide]", "values": [{"measurement": "IC50", "setting": "hROMK (hKir1.1)", "result": 639, "unit": "nM"}, {"measurement": "IC50", "setting": "Kir1.1 (ROMK1)", "result": 1390, "unit": "nM"}]}, {"smiles": "Cc1c([C@@H](O)CN2CCCC2CNc2ccc(C#N)cn2)ccc2c1COC2=O", "note": "(some centres unmarked) [Example 18]", "values": [{"measurement": "IC50", "setting": "hROMK (hKir1.1)", "result": 534, "unit": "nM"}, {"measurement": "IC50", "setting": "Kir1.1 (ROMK1)", "result": 65, "unit": "nM"}]}, {"smiles": "Cc1c([C@@H](O)CN2CCCCC2CNCC(O)c2ccc(C#N)cn2)ccc2c1COC2=O", "note": "(stereo partly drawn) [Example 13, 6-{1-Hydroxy-2-[({1-[(2R)-2-hydroxy-2-(4-methyl-1-oxo-1,3-dihydro-2-benzofuran-5-yl)ethyl]piperidin-2-yl}methyl)amino]ethyl}pyridine-3-carbonitrile]", "values": [{"measurement": "IC50", "setting": "hROMK (hKir1.1)", "result": 162, "unit": "nM"}, {"measurement": "IC50", "setting": "Kir1.1 (ROMK1)", "result": 269, "unit": "nM"}]}, {"smiles": "Cc1c(C(CO)NCC2CCCCN2C[C@H](O)c2ccc3c(c2C)COC3=O)ccc2c1COC2=O", "note": "(stereo partly drawn) [Example 6, 5-{(1R)-1-Hydroxy-2-[2-({[2-hydroxy-1-(4-methyl-1-oxo-1,3-dihydro-2-benzofuran-5-yl)ethyl]amino}methyl)piperidin-1-yl]ethyl}-4-methyl-2-benzofuran-1(3H)-one]", "values": [{"measurement": "IC50", "setting": "hROMK (hKir1.1)", "result": 143, "unit": "nM"}, {"measurement": "IC50", "setting": "Kir1.1 (ROMK1)", "result": 446, "unit": "nM"}]}, {"smiles": "Cc1c([C@@H](O)CN[C@@H]2CCN(CC(O)c3ccc(C#N)cn3)C2)ccc2c1COC2=O", "note": "(stereo partly drawn) [Example 12, 6-(1-Hydroxy-2-((R)-3-((R)-2-hydroxy-2-(4-methyl-1-oxo-1,3-dihydroisobenzofuran-5-yl)ethylamino)pyrrolidin-1-yl)ethyl)nicotinonitrile]", "values": [{"measurement": "IC50", "setting": "hROMK (hKir1.1)", "result": 542, "unit": "nM"}, {"measurement": "IC50", "setting": "Kir1.1 (ROMK1)", "result": 1370, "unit": "nM"}]}]}
